Measured values taken from patent publication US20070254903A1, “Novel Spiroindoline or Spiroisoquinoline Compounds, Methods of Use and Compositions Thereof” (ARENA PHARMACEUTICALS, INC., priority 2003, published 2007).

Molecular target: T1, human Mas receptor (Homo sapiens, UniProt P04201)
T1 construct: expressed in transfected cells
T1 sequence (P04201 1-325): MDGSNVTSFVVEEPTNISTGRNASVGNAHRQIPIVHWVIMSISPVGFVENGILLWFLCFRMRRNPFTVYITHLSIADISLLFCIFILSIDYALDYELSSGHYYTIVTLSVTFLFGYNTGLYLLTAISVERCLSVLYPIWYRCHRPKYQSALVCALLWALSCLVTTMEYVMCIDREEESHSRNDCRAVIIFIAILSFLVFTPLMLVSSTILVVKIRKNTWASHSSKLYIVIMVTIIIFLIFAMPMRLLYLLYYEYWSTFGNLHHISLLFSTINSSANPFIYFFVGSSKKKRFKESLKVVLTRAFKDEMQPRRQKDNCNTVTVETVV
Experiment: Mas receptor IP3 assay (inverse agonist assay)
Type: cell-based
Experimental: The Mas receptor IP3 assay was performed using a mammalian cell line (HEK293) which was transfected with a plasmid containing the human Mas receptor and selected for stable expression of the receptor. For the inverse agonist assay, higher levels of Mas receptor constitutive activity were desired. To achieve this, Mas receptor expression levels were increased by transiently transfecting the same Mas receptor stable cell line with additional human Mas receptor plasmid DNA following standard procedures. These cells were used in the Mas receptor IP3 assay approximately 24 hours post-transfection.
Cells were split into 96-well plates (50,000 cells/well) and allowed to attach for a period of 6 hours. The growth medium was then replaced with medium supplemented with 4 μCi/ml [^3H]myo-inositol (100 μl; Perkin Elmer Life Sciences) and the cells were allowed to incubate for approximately 20 hours. Test compounds were serially diluted in inositol-free media containing 10 mM LiCl. The media in the plates was removed by aspiration, replaced with these test compound solutions and incubated at 37° C. for 1 hour. Following this incubation, the media was removed by aspiration and replaced with buffer containing 0.1M formic acid. The plates were then frozen overnight at −80° C. to achieve complete cell lysis.
The following day, the assay plates were thawed at room temperature. The thawed contents were then transfered to 96-well filter plates (Millipore, Multiscreen) pre-loaded with resin (Biorad, AG1-X8 100-200 mesh, formate form). The plate was filtered using a vacuum manifold and the resin was washed multiple times with water. An elution buffer was then applied (200 μl, 0.2M Ammonium formate/0.1M formic acid) and the resulting eluent was collected, under vacuum, in a 96-well collection plate. Aliquots of the eluent (80 μl) were transferred to filter plates (Whatman, Unifilter GF/C) and dried in a 45° C. oven overnight. Dried plates were counted on a scintillation counter following the addition of an appropriate scintillant (Perkin Elmer Life Sciences, Optiphase Supermix or Hi-Safe 3).

`C=CCN1CCC2(CC1)CN(C(=O)c1cccc(F)c1F)c1ccc(F)cc12` [Compound 75, 1′-(allyl)-1,2-dihydro-5-fluoro-1-(2,3-difluoro-benzoyl)-spiro[3H-indole-3,4′-piperidine]] was tested, and the IC50 (HEK293 cells over-expressing human Mas receptor, average from several experiments) was 298 nM and the IC50 (representative experiment, FIG. 1) was 225 nM.
